Results: US6075057A, “Inhibition of carbohydrates metabolism by quinone compounds” (priority 1997, dated 2000)

Legend:
[1] = target: T1, α-mannosidase (EC 3.2.1.24) (Canavalia ensiformis, UniProt C0HJB3); assay: Initial screening assay for enzyme inhibition, α-mannosidase; assay type: biochemical, jack beans; settings: for remaining activity at 10 µM: α-mannosidase, 10 μM inhibitor, 2% MeOH, read-out: % Enzyme activity relative to control
T1 construct: 66 and 44 kDa subunits cleaved from one precursor
T1 sequence (C0HJB3 1-981): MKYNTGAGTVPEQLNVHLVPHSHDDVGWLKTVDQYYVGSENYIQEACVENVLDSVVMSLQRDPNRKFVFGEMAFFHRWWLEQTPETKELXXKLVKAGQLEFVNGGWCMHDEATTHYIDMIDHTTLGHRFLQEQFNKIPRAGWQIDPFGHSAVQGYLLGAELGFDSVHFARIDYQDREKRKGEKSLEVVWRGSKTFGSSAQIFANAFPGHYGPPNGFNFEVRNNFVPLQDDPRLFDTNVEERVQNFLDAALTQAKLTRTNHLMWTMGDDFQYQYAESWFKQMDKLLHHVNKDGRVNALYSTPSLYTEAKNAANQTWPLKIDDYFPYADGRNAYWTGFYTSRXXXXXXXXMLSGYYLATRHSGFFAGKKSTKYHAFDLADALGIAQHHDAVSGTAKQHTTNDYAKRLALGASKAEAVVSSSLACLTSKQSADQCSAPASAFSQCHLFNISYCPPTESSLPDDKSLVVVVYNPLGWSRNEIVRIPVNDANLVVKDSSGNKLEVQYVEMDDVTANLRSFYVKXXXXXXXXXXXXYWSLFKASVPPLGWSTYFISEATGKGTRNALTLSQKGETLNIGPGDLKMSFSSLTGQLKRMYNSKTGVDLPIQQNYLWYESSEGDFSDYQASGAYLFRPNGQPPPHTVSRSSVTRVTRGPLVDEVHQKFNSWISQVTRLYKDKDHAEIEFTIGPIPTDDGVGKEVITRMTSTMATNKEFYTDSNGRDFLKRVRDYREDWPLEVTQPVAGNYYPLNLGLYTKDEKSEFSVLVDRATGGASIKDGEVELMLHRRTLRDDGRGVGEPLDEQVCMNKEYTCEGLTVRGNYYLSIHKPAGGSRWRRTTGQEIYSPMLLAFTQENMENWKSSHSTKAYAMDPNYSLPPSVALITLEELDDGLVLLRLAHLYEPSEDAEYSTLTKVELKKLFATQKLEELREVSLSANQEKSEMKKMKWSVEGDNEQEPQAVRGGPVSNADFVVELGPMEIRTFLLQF
Experimental: (§1) Optically pure enantiomers of avarol were synthetically prepared. A survey of potential inhibitory activity by avarol against twelve glycosidases was performed according to general procedures^15 (see experimental section). The enzymes tested and their biological sources are listed in Table 1 along with any pertinent references found for a given enzyme. In order to determine a working range for enzyme and substrate concentrations in which the rate of product formation was linear and steady-state kinetics were applicable, initial rate studies with varying substrate concentrations were performed in the absence of inhibitor. The Michaelis constants (Km 's) and Vmax values for these enzymes were determined from these plots using standard graphical analysis procedures as described in ref. 17 and are summarized in Table 2.
Initial screening assays with the enantiomeric avarols indicated significant activity by these compounds against only two of the twelve enzymes studies. […] This can occur when the two species compete for the same site or nearby sites on the enzyme. The equilibria that describe competitive inhibition are shown below. [drawing 3]
Enzymatic Assays. […] Reactions were monitored at 400 nm (the absorbance of the p-nitrophenol product, ε=3204.5 M^-1 cm^-1) for a given amount of time and the initial rates were calculated and expressed as μmols p-nitrophenol formed per unit enzyme per second. Absportion readings for control reactions were corrected for the small baseline absorbance at time zero. Small discrepancies between time zero absorbance readings in a given inhibition assay and a time zero reading in a control assay were used to correct the overall absorbance change calculated in the inhibition assay. […]
(§2) Typical assay: A 1.5-mL quartz cuvette was charged with 940 μL of PIPES-NaOAc buffer solution (pH 6.56), 20 μL of inhibitor solution, and 20 μL of enzyme solution. […] The reaction was monitored at 400 nm for 1 min and the absorbance change was used to calculate the initial hydrolysis rate. […]

[2] = target: T2, α-L-fucosidase (EC 3.2.1.51) (Bos taurus, UniProt Q2KIM0); assay: Initial screening assay for enzyme inhibition, α-L-fucosidase; assay type: biochemical, bovine kidney; settings: α-L-fucosidase, 2% MeOH, read-out: % Enzyme activity relative to control
T2 construct: purchased Sigma; host or cells: bovine kidney
T2 sequence (Q2KIM0 23-468): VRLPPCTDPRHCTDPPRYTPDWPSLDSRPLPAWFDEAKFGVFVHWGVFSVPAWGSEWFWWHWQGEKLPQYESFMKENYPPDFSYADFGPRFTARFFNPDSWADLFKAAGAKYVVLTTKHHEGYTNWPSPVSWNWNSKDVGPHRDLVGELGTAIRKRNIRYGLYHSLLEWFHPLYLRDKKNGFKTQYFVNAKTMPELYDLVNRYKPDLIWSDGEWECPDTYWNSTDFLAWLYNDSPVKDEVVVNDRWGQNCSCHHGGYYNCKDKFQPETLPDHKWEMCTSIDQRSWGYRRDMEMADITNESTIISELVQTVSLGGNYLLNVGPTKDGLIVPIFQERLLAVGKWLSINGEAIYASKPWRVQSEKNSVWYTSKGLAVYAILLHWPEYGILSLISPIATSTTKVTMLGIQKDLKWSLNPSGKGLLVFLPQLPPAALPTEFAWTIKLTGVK
Experimental: as §1
(§3) Enzymatic Assays. Piperazine-N,N'-bix-(2-ethanesulfonic acid)(PIPES) buffer, enzymes, and substrates were purchased from Sigma and used as received. Buffer solutions and enzymes (desiccated) were stored at 4° C. p-Nitrophenyl glycoside substrates were stored desiccated at -20° C. Enzyme inhibition assays and initial rate studies were carried out with the appropriate p-nitrophenyl glycoside substrates following the general procedure of Kajimoto et al., J. Am. Chem. Soc. 113:6187 (1991) with the exception that amyloglucosidase (EC 3.2,1.3, Asp. niger) was assayed following the method of Saul et al., Arch. Biochem. Biophys. 221:593 (1983). Assays were performed in a Perkin-Elmer Lambda Array 3840 Spectrophotometer using the built-in drive method (resolution=0.25, average=8) in a quartz cuvette (1 cm pathlength). Background absorption spectra were acquired using millipore filtered water as medium. Steady-state kinetics were maintained by adjusting the amount of enzyme used in each assay so that less than 10% of the substrate was converted to product for the duration of the reaction. Reactions were monitored at 400 nm (the absorbance of the p-nitrophenol product, ε=3204.5 M^-1 cm^-1) for a given amount of time and the initial rates were calculated and expressed as μmols p-nitrophenol formed per unit enzyme per second. Absportion readings for control reactions were corrected for the small baseline absorbance at time zero. Small discrepancies between time zero absorbance readings in a given inhibition assay and a time zero reading in a control assay were used to correct the overall absorbance change calculated in the inhibition assay. […]
as §2

[3] = test system: α-galactosidase (EC 3.2.1.22); assay: Initial screening assay for enzyme inhibition, α-galactosidase (E. coli); assay type: biochemical, Escherichia coli; settings: 2% MeOH
Experimental: as §1, §3, §2

[4] = target: T3, α-galactosidase (EC 3.2.1.22) (Coffea arabica, UniProt Q42656); assay: Initial screening assay for enzyme inhibition, α-galactosidase (green coffee beans); assay type: biochemical; settings: α-galactosidase (green coffee beans), 2% MeOH, read-out: % Enzyme activity relative to control
T3 construct: purchased Sigma; host or cells: green coffee beans
T3 sequence (Q42656 16-378): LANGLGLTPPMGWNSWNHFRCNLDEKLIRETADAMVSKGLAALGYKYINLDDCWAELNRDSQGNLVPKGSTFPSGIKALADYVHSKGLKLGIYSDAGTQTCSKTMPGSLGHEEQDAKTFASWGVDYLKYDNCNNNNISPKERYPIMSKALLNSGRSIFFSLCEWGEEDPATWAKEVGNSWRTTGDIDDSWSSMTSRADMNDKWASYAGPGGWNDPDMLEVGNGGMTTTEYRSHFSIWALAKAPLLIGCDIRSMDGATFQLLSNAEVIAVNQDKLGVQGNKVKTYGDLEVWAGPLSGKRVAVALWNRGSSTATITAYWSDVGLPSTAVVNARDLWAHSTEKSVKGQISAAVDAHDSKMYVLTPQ
Experimental: as §1, §3, §2

[5] = test system: β-mannosidase (EC 3.2.1.25); assay: Initial screening assay for enzyme inhibition, β-mannosidase; assay type: biochemical, snail; settings: 2% MeOH
Experimental: as §1, §3, §2

CC1=CCC[C@H]2[C@](C)(Cc3cc(O)ccc3O)[C@@H](C)CC[C@]12C [(+)-avarol, (+)-Avarol]
remaining activity at 10 µM [1]: 90%
remaining activity at 40 µM ([2]; 40 μM inhibitor): 101%
% Enzyme activity relative to control ([3]; 40 μM inhibitor): 90%
remaining activity at 40 µM ([4]; 40 μM inhibitor): 82%
% Enzyme activity relative to control ([5]; 40 μM inhibitor): 106%

CC1=CCC[C@@H]2[C@@](C)(Cc3cc(O)ccc3O)[C@H](C)CC[C@@]12C [(-)-avarol]
activity versus naturally-occurring enantiomer, α-mannosidase (in words) ([1]; versus (+)-avarol): significantly more active than the naturally-occurring enantiomer
remaining activity at 10 µM [1]: 47%
remaining activity at 20 µM ([2]; 20 μM inhibitor): 108%
% Enzyme activity relative to control ([3]; 20 μM inhibitor): 94%
remaining activity at 20 µM ([4]; 20 μM inhibitor): 83%
% Enzyme activity relative to control ([5]; 20 μM inhibitor): 101%
